Values quoted from earlier work as cited in patent publication US7144595B2, “Prepared foods containing triglyceride-recrystallized non-esterified phytosterols” (Brandeis University, priority 2001, dated 2006).

Test system: humans

Compound | lowering of serum cholesterol (12–18 g per day in divided doses, males with atherosclerosis (Faquhar 1956)) | decrease of plasma cholesterol level (9–18 grams per day, coarse powdered form)
CC[C@H](CC[C@@H](C)[C@H]1CC[C@H]2[C@@H]3CC=C4C[C@@H](O)CC[C@]4(C)[C@H]3CC[C@]12C)C(C)C [beta sitosterol] | 15–20% | –
CC[C@H](CC[C@@H](C)[C@H]1CC[C@H]2[C@@H]3CC=C4C[C@@H](O)CC[C@]4(C)[C@H]3CC[C@]12C)C(C)C [sitosterol] | – | approximately 15%
